Results reported in patent US6265418A, “N-acylamino acid amide compounds and intermediates for preparation thereof” (Ube Industries, Ltd., priority 1997, dated 2001).
pIC50: −log10 of the molar value. Like-named read-outs stand apart in the source and are kept apart here.

Tests used:
[1] = tested on: platelet aggregation induced by ADP and epinephrine; assay: Ex vivo ADP induced-platelet aggregation inhibiting activity after oral administration to dogs; format: in vivo; details: beagle dogs, ADP 10 μM + epinephrine 1 μM
Experimental: (§1) Ex Vivo ADP Induced-platelet Aggregation Inhibiting Activity
As a test animal, 2 to 3 beagle dogs were used as one group.
(§2) Test compounds were suspended in a dimethylsulfoxide: 0.5% aqueous sodium carboxymethylcellulose solution (=1:99) and orally administered. To the animals for control group, a dimethylsulfoxide: 0.5% aqueous sodium carboxymethylcellulose solution (=1:99) containing no test compound was orally administered.
(§3) With regard to the respective groups, 5 ml of blood was each collected from cervical vein at the predetermined times before and after administration of the test compound by using a syringe to which 3.8% of sodium citrate was added. The resulting citrate-added blood was centrifuged at 80×g (=700 rpm) for 10 minutes, and then, the supernatant was fractionated as platelet-rich plasma (PRP). The under layer was further centrifuged at 2000×g (3200 rpm) for 10 minutes and the supernatant was fractionated as platelet-poor plasma (PPP) and used for ADP aggregation (coagulation) measurement.
(§4) PRP was diluted by PPP to adjust the number of platelet to 30 to 40×10^4 /μL, and platelet aggregation induced by ADP was measured by using an aggrigometer (available from NBS Co., Hematracer 801). First, 190 μL of PRP was placed in a glass cuvette for exclusive use and pre-incubated while stirring (1000 ppm) at 37° C. for 5 minutes. Thereafter, 10 μL of an ADP solution (final concentration 10 μM) and an epinephrine solution (final concentration 1 μM) was added thereto to induce platelet aggregation. Change in transmittance caused by platelet aggregation was recorded for 3 minutes after addition of ADP.
(§5) Transmittances of PRP and PPP were made 0 and 100%, respectively, and the maximum transmittance after adding ADP was made the maximum aggregation ratio.
(§6) The platelet aggregation inhibiting ratio was shown in terms of a percentage of the maximum aggregation ratio when the test compound was added divided by the maximum aggregation ratio when the solvent for preparation was added.

[2] = tested on: platelet aggregation induced by ADP; assay: ADP (adenosine diphosphate) induced-platelet aggregation inhibiting activity (in vitro, platelet-rich plasma); format: cell-based, human (healthy volunteer); details: ADP final concentration 10 μM, 37° C., pre-incubation 5 minutes, prime (') = converted into carboxylic acid compound before test, read-out: in vitro Platelet aggregation inhibition activity IC50
Experimental: ADP (adenosine diphosphate) induced-platelet aggregation inhibiting activity
(1) Preparation Method of Platelet-rich Plasma
By using 0.1 volume of 3.8% sodium citrate as an anticoagulant, citrate-added blood collected from an elbow vein of a healthy volunteer was centrifuged at 500×g (=1600 rpm) for 3 minutes and the supernatant was fractionated as platelet-rich plasma (PRP). The under layer was further centrifuged at 1800×g (3200 rpm) for 15 minutes and the supernatant was fractionated as platelet-poor blood plasma (PPP) and used for ADP aggregation (coagulation) measurement.
(2) Measurement Method of ADP-induced Platelet Aggregation
PRP obtained as mentioned above was diluted by the platelet-poor plasma (PPP) to adjust the number of platelet to 30 to 40×10^4 /μL, and platelet aggregation induced by ADP was measured by using an aggrigometer (available from NBS Co., Hematracer Va.). First, 185 μL of PRP was placed in a glass cuvette for exclusive use, 5 μL of a test compound solution or a solvent (control) for preparing test compound was added thereto, and the mixture was pre-incubated while stirring (1000 ppm) at 37° C. for 5 minutes. Thereafter, 10 μL (final concentration 10 μM) of an ADP solution was added thereto to induce platelet aggregation. Change in transmittance caused by platelet aggregation was recorded for 3 minutes after addition of ADP.
Transmittances of PRP and PPP were made 0 and 100%, respectively, and the maximum transmittance after adding ADP was made the maximum aggregation ratio. The maximum aggregation ratio when the test compound was added divided by that ratio when the solvent for preparation was added was shown in terms of a percentage, and a 50% inhibiting concentration (IC50) was calculated.
Incidentally, when the test compound has a protected carboxyl group, the sample was applied to the test after carrying out the following deprotection treatment. First, the test compound was dissolved in ethanol, and hydrolyzed (at room temperature for 2 hours) by adding an equal volume of a 0.1 N aqueous sodium hydroxide solution. Then, the solution was neutralized by adding a 0.1 N aqueous hydrochloric acid solution, and the resulting solution was diluted by using a preparation solvent (composition: ethanol/0.1 N aqueous sodium hydroxide solution/0.1 N aqueous hydrochloric acid solution=1/1/1) to a predetermined concentration to make a test compound solution.

[3] = tested on: platelet aggregation induced by ADP; assay: Ex vivo ADP induced-platelet aggregation inhibiting activity after oral administration to monkeys; format: in vivo; details: cynomolgus monkeys, ADP 20 μM
Description: as §1
As a test animal, 2 to 3 monkeys (cynomolgus monkeys) born in China were used as one group.
as §2
as §3, with “femoral” for “cervical”, “platelet rich” for “platelet-rich”
as §4, with “by using a nephelometric platelet aggregation meter (available from” for “by using an aggrigometer (available from”, “10 μL (final concentration 20 μM) of an” for “10 μL of an”, “ADP solution was added” for “ADP solution (final concentration 10 μM) and an epinephrine solution (final concentration 1 μM) was added”
as §5, §6

[4] = tested on: fibrinogen receptor; details: reported in Thrombosys, Res., 56, 6, 687 (1989); cited from earlier work
[5] = tested on: platelet aggregation; details: reported in Thrombosys, Res., 56, 6, 687 (1989); cited from earlier work

CCOC(=O)Cn1cc2c(n1)CCN(C(=O)[C@H](Cc1ccc([N+](=O)[O-])cc1)NC(=O)c1ccc(C(=N)NC(=O)Oc3ccccc3)cc1)C2 [Example I-115, Ethyl 5-[N-[4-(N-phenoxycarbonylamidino)benzoyl]-L-4-nitrophenylalanyl)-4,5,6,7-tetrahydropyrazolo[4,3-c]pyridin-2-acetate]
ex vivo Platelet aggregation inhibiting ratio ([1]; 0.3 mg/kg p.o., 1 hr): 35%
ex vivo Platelet aggregation inhibiting ratio ([1]; 0.3 mg/kg p.o., 4 hr): 43%
ex vivo Platelet aggregation inhibiting ratio ([1]; 0.3 mg/kg p.o., 8 hr): 22%

N=C(N)c1ccc(C(=O)N[C@@H](Cc2ccc([N+](=O)[O-])cc2)C(=O)N2C3CCC2c2cn(CC(=O)O)nc2C3)cc1 (stereo partly drawn) [Example I-91, 5-[N-(4-amidinobenzoyl)-L-4-nitrophenylalanyl]-4,6-ethano-4,5,6,7-tetrahydropyrazolo[4,3-c]pyridin-2-acetic acid]
pIC50 ([2]; Homo sapiens, Platelet): 7.30

CCOC(=O)Cn1cc2c(n1)CCN(C(=O)[C@H](Cc1ccc([N+](=O)[O-])cc1)NC(=O)c1ccc(C(=N)NO)cc1)C2 [Example I-85, Ethyl 5-[N-[4-(N-hydroxyamidino)benzoyl]-L-4-nitrophenylalanyl]-4,5,6,7-tetrahydropyrazolo[4,3-c]pyridin-2-acetate]
ex vivo Platelet aggregation inhibiting ratio ([1]; 0.3 mg/kg p.o., 1 hr): 61%
ex vivo Platelet aggregation inhibiting ratio ([1]; 0.3 mg/kg p.o., 4 hr): 94%
ex vivo Platelet aggregation inhibiting ratio ([1]; 0.3 mg/kg p.o., 8 hr): 41%

CCOC(=O)Cn1cc2c(n1)CCN(C(=O)[C@H](Cc1ccc([N+](=O)[O-])cc1)NC(=O)c1ccc(C(=N)N)cc1)C2 [Example I-76, Ethyl 5-[N-(4-amidinobenzoyl)-L-4-nitrophenylalanyl]-4,5,6,7-tetrahydropyrazolo[4,3-c]pyridin-2-acetate.trifluoroacetate]
platelet aggregation inhibiting activities even in oral administration [3]: excellent platelet aggregation inhibiting activities
sustained activity [3]: excellent sustained activity

N=C(N)c1ccc(C(=O)N[C@@H](Cc2ccc([N+](=O)[O-])cc2)C(=O)N2CCc3nn(CC(=O)O)cc3C2)cc1 [Example I-79, 5-[N-(4-amidinobenzoyl)-L-4-nitrophenylalanyl]-4,5,6,7-tetrahydropyrazolo[4,3-c]pyridin-2-acetic acid.trifluoroacetate]
pIC50 ([2]; Homo sapiens, Platelet): 7.70

Arg-Gly-Asp-Ser (RGDS; printed: Arg-Gly-Asp-Ser) [peptide derivative such as Arg-Gly-Asp-Ser (hereinafter abbreviated to as RGDS)]
pIC50 [2]: 5.40
antagonistic action against a fibrinogen receptor [4]: antagonistic action against a fibrinogen receptor
platelet aggregation inhibiting action [5]: platelet aggregation inhibiting action

CCOC(=O)Cn1cc2c(n1)CCN(C(=O)[C@H](Cc1ccc([N+](=O)[O-])cc1)NC(=O)c1ccc(C(=N)NC(=O)OCC)cc1)C2 [Example I-77, Ethyl 5-[N-[4-(N-ethoxycarbonylamidino)benzoyl]-L-4-nitrophenylalanyl]-4,5,6,7-tetrahydropyrazolo[4,3-c]pyridin-2-acetate]
platelet aggregation inhibiting activities even in oral administration [3]: excellent platelet aggregation inhibiting activities
sustained activity [3]: excellent sustained activity
ex vivo Platelet aggregation inhibiting ratio ([1]; 1 mg/kg p.o., 1 hr): 60%
ex vivo Platelet aggregation inhibiting ratio ([1]; 1 mg/kg p.o., 4 hr): 85%
ex vivo Platelet aggregation inhibiting ratio ([1]; 1 mg/kg p.o., 8 hr): 63%

C[C@H](NC(=O)c1ccc(C(=N)N)cc1)C(=O)N1CCc2nn(CC(=O)O)cc2C1 [Example I-126, 5-[N-(4-amidinobenzoyl)-L-alanyl]-4,5,6,7-tetrahydropyrazolo[4,3-c]pyridin-2-acetic acid.trifluoroacetate]
pIC50 ([2]; Homo sapiens, Platelet): 7.10

N=C(N)c1ccc(C(=O)N[C@@H](Cc2ccc(OCc3ccccc3)cc2)C(=O)N2CCc3nn(CC(=O)O)cc3C2)cc1 [Example I-138, 5-[N-(4-amidinobenzoyl)-L-O-benzyltyrosyl)-4,5,6,7-tetrahydropyrazolo[4,3-c]pyridin-2-acetic acid.trifluoroacetate]
pIC50 ([2]; Homo sapiens, Platelet): 7.22

N=C(N)c1ccc(C(=O)N[C@@H](Cc2ccc([N+](=O)[O-])cc2)C(=O)N2CCc3sc(CC(=O)O)cc3C2)cc1 [Example I-5, 5-[N-(4-amidinobenzoyl)-L-4-nitrophenylalanyl]-4,5,6,7-tetrahydrothieno[3,2-c]pyridin-2-acetic acid.trifluoroacetate]
pIC50 ([2]; Homo sapiens, Platelet): 7.52

N=C(N)c1ccc(C(=O)N[C@@H](Cc2ccccc2)C(=O)N2CCc3nn(CC(=O)O)cc3C2)cc1 [Example I-128, 5-[N-(4-amidinobenzoyl)-L-phenylalanyl]-4,5,6,7-tetrahydropyrazolo[4,3-c]pyridin-2-acetic acid.trifluoroacetate]
pIC50 ([2]; Homo sapiens, Platelet): 7.30

CN(C(=O)c1ccc(C(=N)N)cc1)[C@@H](Cc1ccc([N+](=O)[O-])cc1)C(=O)N1CCc2nn(CC(=O)O)cc2C1 [Example I-136, 5-[N-(4-amidinobenzoyl)-N-methyl-L-4-nitrophenylalanyl)-4,5,6,7-tetrahydropyrazolo[4,3-c]pyridin-2-acetic acid.trifluoroacetate]
pIC50 ([2]; Homo sapiens, Platelet): 7.22
